In patent US11299487B2, “Compounds and compositions as modulators of TLR signaling” (Neuropore Therapies, Inc., priority 2019, dated 2022):
Read-outs that look alike come from different tables or passages of the source.

Tests used:
Assay type in all cases: cell-based
[1] = target: T1, human TLR9 (Homo sapiens, UniProt Q9NR96); experiment: HEK-Blue hTLR9 assay (SEAP reporter) with agonist ODN 2006; details: HEK-Blue hTLR9 cells, ~3×EC50 ODN 2006, 18 h, exact values 8-point dilutions, approximate (~ or <) 4-point dilutions, read-out: ~IC50 (μM) with ODN2006
T1 construct: host or cells: HEK-Blue hTLR9 (HEK-293)
T1 sequence (Q9NR96 26-1032): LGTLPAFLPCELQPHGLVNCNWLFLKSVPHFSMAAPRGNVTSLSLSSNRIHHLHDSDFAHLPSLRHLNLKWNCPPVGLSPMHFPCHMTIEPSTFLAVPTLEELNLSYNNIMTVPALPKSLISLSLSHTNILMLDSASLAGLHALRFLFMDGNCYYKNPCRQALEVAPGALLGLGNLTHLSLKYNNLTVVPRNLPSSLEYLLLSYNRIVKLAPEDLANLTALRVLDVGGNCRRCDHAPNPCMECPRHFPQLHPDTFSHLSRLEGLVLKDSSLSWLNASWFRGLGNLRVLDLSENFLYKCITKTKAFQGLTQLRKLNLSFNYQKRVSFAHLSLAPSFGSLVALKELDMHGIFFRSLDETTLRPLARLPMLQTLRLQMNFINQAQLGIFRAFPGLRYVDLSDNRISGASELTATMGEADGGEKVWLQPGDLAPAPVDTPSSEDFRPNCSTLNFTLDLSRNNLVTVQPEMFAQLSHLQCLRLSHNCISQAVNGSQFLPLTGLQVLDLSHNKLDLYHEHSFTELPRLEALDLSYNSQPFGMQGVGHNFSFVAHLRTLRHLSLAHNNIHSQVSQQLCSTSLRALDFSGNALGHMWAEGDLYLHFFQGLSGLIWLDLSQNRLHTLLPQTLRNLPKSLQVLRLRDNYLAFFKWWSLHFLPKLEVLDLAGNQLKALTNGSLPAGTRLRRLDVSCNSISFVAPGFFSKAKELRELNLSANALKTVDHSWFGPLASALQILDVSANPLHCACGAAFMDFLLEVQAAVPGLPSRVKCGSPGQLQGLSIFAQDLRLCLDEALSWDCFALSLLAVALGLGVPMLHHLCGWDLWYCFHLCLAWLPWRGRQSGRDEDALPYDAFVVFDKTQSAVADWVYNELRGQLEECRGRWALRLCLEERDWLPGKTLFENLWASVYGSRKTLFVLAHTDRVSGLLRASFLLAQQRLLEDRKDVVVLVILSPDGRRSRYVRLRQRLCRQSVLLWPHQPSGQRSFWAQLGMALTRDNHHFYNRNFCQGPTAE
Procedure: Synthetic ODNs (ODN 2006 (ODN7909), class B CpG oligonucleotide, TLR9 agonist) was obtained from InvivoGen and was dissolved in endotoxin-free water to a concentration 500 μM, vortexed until complete solubilization, and stored in aliquots at −20° C. Prior to addition to cells, an aliquot of the dissolved ligand was vortexed shortly and then was diluted in medium to 50 μM. The EC50 of the agonist for each assay run was determined by using 3-fold dilutions from the starting concentration 10 μM.
Test compounds were solubilized fresh to 10-20 mM stocks in DMSO and sonicated for 5-10 minutes in a water bath sonicator. Serial dilutions were prepared in DMSO, and then diluted in medium. The final concentration of DMSO used in the assay was 1%.
HEK-Blue hTLR9 reporter cells (InvivoGen) are HEK-293 cells stably expressing both the human TLR9 gene and a secreted embryonic alkaline phosphatase (SEAP) reporter construct downstream of NFκB promotor sites. HEK-Blue hTLR9 cells were cultured according to manufacturer's protocol using Dulbecco's Modified Eagle Medium (DMEM; Gibco) containing 1× GlutaMax (Gibco), 10% heat-inactivated Fetal Bovine Serum (Gibco), Pen-Strep (50 U/mL penicillin, 50 μg/mL streptomycin, Gibco), 100 μg/mL Normocin (InvivoGen), and the selective antibiotics, 10 μg/mL Blasticidin (InvivoGen), and 100 μg/mL Zeocin (InvivoGen). Quanti-Blue reagent (InvivoGen) for detection and quantification of secreted alkaline phosphatase was dissolved in 100 mL of endotoxin-free water, warmed to 37° C. for 30 minutes and then filtered using a 0.2 μm membrane.
On day 1, 50 μL of each test compound dilution in duplicates or a vehicle control was added to each well of a 96-well plate followed by addition of 150 μL of HEK-Blue hTLR9 cell suspension (1×10^5 cells/well) and incubated at 37° C./5% CO2 for 2 h. Next, 50 μL of an approximate 3×EC50 concentration of TLR9 agonist, ODN 2006, was added to the wells containing test compounds or the vehicle control. The plates were then incubated at 37° C./5% CO2 for 18 h. For each assay run, vehicle-treated HEK-Blue hTLR9 cells were treated with serial dilutions of agonist to determine EC50 values for the respective run.
On day 2, secreted alkaline phosphatase (SEAP) activity was detected in cell culture supernatants. In brief, 30 μL was collected from each well and transferred to a 96-well plate. Next, 200 μL of Quanti-Blue detection reagent was added to each well. Plates were incubated at 37° C. for 60 min. and SEAP activity was assessed by spectrophotometer OD reading at 655 nm. Table A and Table B show the activities of the compounds tested in HEK-Blue hTLR9 cells against ODN 2006. The activities of the compounds against ODN 2006 are presented as IC50 values which were defined as concentrations of the compounds where percent inhibition of the signal induced by agonist is equal to 50. Exact IC50 values were calculated based on 8-point dilutions for each compound. Approximate IC50 values (˜ or <) were calculated based on 4-point dilutions for each compound.

[2] = target: T2, human TLR2 (Homo sapiens, UniProt O60603); experiment: HEK-Blue hTLR2 antagonism assay (SEAP reporter) with agonist Pam3CSK4 (TLR1/2 agonist); details: HEK-Blue hTLR2 cells, ~3×EC50 Pam3CSK4, 18 h, SEAP OD 655 nm, 8-point dilutions
T2 construct: host or cells: HEK-Blue hTLR2 (HEK-293)

[3] = target: T2, human TLR2; experiment: HEK-Blue hTLR2 antagonism assay (SEAP reporter) with agonist Pam2CSK4 (TLR2/6 agonist); details: HEK-Blue hTLR2 cells, ~3×EC50 Pam2CSK4, 18 h, SEAP OD 655 nm, 8-point dilutions

T2 sequence (O60603 21-784): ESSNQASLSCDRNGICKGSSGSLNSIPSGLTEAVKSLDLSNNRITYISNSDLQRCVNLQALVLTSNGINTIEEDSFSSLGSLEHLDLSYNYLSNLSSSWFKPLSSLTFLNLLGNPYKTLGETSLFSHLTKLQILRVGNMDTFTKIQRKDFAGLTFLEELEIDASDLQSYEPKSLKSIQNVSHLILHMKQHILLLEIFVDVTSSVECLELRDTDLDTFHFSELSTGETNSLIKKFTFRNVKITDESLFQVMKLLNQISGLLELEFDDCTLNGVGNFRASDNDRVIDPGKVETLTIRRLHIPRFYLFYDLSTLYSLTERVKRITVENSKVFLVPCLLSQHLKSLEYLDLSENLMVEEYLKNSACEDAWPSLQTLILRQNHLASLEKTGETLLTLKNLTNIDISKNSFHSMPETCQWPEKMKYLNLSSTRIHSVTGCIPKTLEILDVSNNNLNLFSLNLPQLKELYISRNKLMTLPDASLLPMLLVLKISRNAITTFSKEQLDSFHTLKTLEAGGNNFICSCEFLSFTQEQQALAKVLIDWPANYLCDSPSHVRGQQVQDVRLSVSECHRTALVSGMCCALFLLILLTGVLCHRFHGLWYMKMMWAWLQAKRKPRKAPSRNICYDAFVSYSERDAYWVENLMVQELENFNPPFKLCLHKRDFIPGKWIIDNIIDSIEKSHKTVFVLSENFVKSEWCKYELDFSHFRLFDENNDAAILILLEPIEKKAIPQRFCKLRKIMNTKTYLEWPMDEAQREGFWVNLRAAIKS

SMILES	IC50 ([1]; Table B) [µM]	IC50 ([2]; Table B) [µM]	IC50 ([3]; Table B) [µM]	IC50 ([1]; Table A) [µM]	IC50 ([2]; Table A) [µM]	IC50 ([3]; Table A) [µM]
O=Cc1cc(C#Cc2ccc(N3CCCC3)cc2)cc(F)c1O [Compound B1, 3-fluoro-2-hydroxy-5-((4-(pyrrolidin-1-yl)phenyl)ethynyl)benzaldehyde]	< 1.2	0.7	1.1			
CC1(C)CCN(c2ccc(NC(=O)c3cc(F)c(O)c(C=O)c3)cc2)C1 [Compound B73, N-(4-(3,3-dimethylpyrrolidin-1-yl)phenyl)-3-fluoro-5-formyl-4-hydroxybenzamide]	0.3	0.3	0.6			
CN1CCN(/N=C/c2cc(-c3ccn(-c4ccccc4)n3)cc(F)c2O)CC1 [Compound A33, (E)-2-fluoro-6-(((4-methylpiperazin-1-yl)imino)methyl)-4-(1-phenyl-1H-pyrazol-3-yl)phenol]				~4	3.6	4
O=Cc1cc(-c2nc(-c3ccc(N4CCCC4)cc3)ns2)cc(F)c1O [Compound A62, 3-fluoro-2-hydroxy-5-(3-(4-(pyrrolidin-1-yl)phenyl)-1,2,4-thiadiazol-5-yl)benzaldehyde]				0.2	0.4	0.7
O=Cc1cc(C#Cc2ccc(N3CCOCC3)cc2)cc(F)c1O [Compound B3, 3-fluoro-2-hydroxy-5-((4-morpholinophenyl)ethynyl)benzaldehyde]	< 1.2	2.2	3.7			
O=Cc1cc(C(=O)Nc2cccc(N3CCCC3)c2)cc(F)c1O [Compound B71, 3-fluoro-5-formyl-4-hydroxy-N-(3-(pyrrolidin-1-yl)phenyl)benzamide]	~2.5	1.7	2.6			
COc1cc(-c2cnn(Cc3ccccn3)c2)cc(C=O)c1O [Compound A8, 2-hydroxy-3-methoxy-5-(1-(pyridin-2-ylmethyl)-1H-pyrazol-4-yl)benzaldehyde]				> 33	> 100	85.5
O=Cc1cc(C(=O)Nc2ccc(N3CCC(F)(F)C3)cc2)cc(F)c1O [Compound B67, N-(4-(3,3-difluoropyrrolidin-1-yl)phenyl)-3-fluoro-5-formyl-4-hydroxybenzamide]	< 1.2	1.2	3.3			
O=Cc1cc(C(=O)Nc2ccccc2)cc(F)c1O [Compound B11, 3-fluoro-5-formyl-4-hydroxy-N-phenylbenzamide]	< 1.2	10.6	12			
O=Cc1cc(-c2nnc(-c3ccccc3)s2)cc(F)c1O [Compound A94, 3-fluoro-2-hydroxy-5-(5-phenyl-1,3,4-thiadiazol-2-yl)benzaldehyde]				< 1.2	9.2	14.8
O=Cc1cc(-c2nsc(-c3ccc(N4CCCC4)cc3)n2)cc(F)c1O [Compound A61, 3-fluoro-2-hydroxy-5-(5-(4-(pyrrolidin-1-yl)phenyl)-1,2,4-thiadiazol-3-yl)benzaldehyde]				< 1.2	1	3.2
COCCCn1cc(-c2cc(C=O)c(O)c(OC)c2)cn1 [Compound A7, 2-hydroxy-3-methoxy-5-(1-(3-methoxypropyl)-1H-pyrazol-4-yl)benzaldehyde]				> 33	42.3	36.8
O=Cc1cc(-c2cnc(-c3ccccc3)s2)cc(F)c1O [Compound A91, 3-fluoro-2-hydroxy-5-(2-phenylthiazol-5-yl)benzaldehyde]				< 1.2	2.1	3.8
